Data taken from patent publication US11236106B2, “Cycloalkane-1,3-diamine derivative” (Daiichi Sankyo Company, Limited, priority 2018, dated 2022).
Where a name gives a salt, the structure may show the parent alone. Read-outs that look alike come from different tables or passages of the source.

Target: T1, menin and MLL (menin, Flag tagged; biotinylated MLL1 peptide 1-46aa) (Homo sapiens, UniProt O00255)
T1 sequence (O00255 1-610): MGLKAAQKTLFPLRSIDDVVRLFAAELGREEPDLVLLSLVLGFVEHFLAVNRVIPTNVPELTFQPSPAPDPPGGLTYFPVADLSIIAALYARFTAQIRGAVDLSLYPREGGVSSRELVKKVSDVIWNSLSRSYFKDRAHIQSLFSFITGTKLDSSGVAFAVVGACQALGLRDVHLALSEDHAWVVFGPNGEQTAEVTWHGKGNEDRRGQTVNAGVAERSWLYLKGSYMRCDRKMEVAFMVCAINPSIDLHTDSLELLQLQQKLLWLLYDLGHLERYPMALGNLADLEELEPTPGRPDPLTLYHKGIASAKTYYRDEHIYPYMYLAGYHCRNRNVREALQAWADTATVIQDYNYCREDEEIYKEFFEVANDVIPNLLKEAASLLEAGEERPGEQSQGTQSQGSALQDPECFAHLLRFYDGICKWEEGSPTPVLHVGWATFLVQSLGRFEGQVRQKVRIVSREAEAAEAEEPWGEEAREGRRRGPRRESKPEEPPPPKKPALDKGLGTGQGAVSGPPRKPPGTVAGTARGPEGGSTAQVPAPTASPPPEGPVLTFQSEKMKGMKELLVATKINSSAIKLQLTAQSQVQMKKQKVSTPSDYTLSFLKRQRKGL
Assay: biochemical

[1] = cell free IC50 (nM), 1 nM menin, 10 nM biotinylated MLL1 peptide, AlphaLISA
[2] = IC50, binding inhibitory activity between menin and MLL, AlphaLISA, 1 nM menin, 10 nM biotinylated MLL1 peptide

Protocol: Then, the fluorescence signal by AlphaLISA (registered trademark, PerkinElmer Co., Ltd.) was measured using a plate reader (PerkinElmer Co., Ltd., EnVisionXcite).

SMILES	IC50 [1]	IC50 [2]	other results
CN(c1ncnc2sc(CC(F)(F)F)cc12)[C@@H]1CC[C@H](NCc2ccc(Nc3cnn(C)c3)cc2)C1 [Example 12, (1R,3S)—N^1-methyl-N^3-({4-[(1-methyl-1H-pyrazol-4-yl)amino]phenyl}methyl)-N^1-[6-(2,2,2-trifluoroethyl)thieno[2,3-d]pyrimidin-4-yl]cyclopentane-1,3-diamine]	33.8 nM	–	–
COc1nc(N(C)[C@H]2C[C@@H](NCc3ccc(-c4cc(OC)c(Cl)nn4)cc3)C[C@H]2O)c2cc(CC(F)(F)F)sc2n1 [Example 90, (1R,2S,4R)-4-({[4-(6-chloro-5methoxypyridazin-3-yl)phenyl]methyl}amino)-2-{[2-methoxy-6-(2,2,2-trifluoroethyl)thieno[2,3-d]pyrimidin-4-yl](methyl)amino}cyclopentan1-ol hydrochloride]	–	–	IC50: 1.2 nM
COc1cc(-c2ccc(CN[C@H]3C[C@@H](O)[C@@H](N(C)c4ncnc5sc(CC(F)(F)F)cc45)C3)cc2)cnc1Cl [Example 65, (1R,2S,4R)-4({[4-(6-chloro-5-methoxypyridin-3-yl)phenyl]methyl}amino)-2{methyl[6-(2,2,2-trifluoroethyl)thieno[2,3-d]pyrimidin-4-yl]amino}cyclopentan-1-ol hydrochloride]	–	2.5 nM	–
COc1cncc(-c2ccc(CN[C@H]3C[C@@H](O)C[C@@H](Nc4ncnc5sc(CC(F)(F)F)cc45)C3)cc2)c1 (single isomer, unassigned) [Example 15A, Hydrochloride]	21.6 nM	–	–
COc1cc(-c2ccc(CN[C@H]3C[C@@H](O)[C@@H](N(C)c4ncncc4Oc4ccc(F)cc4C(=O)N(C(C)C)C(C)C)C3)cc2)nnc1OC [Example 89, 2-[(4-{[(1S,2R,4R)-4({[4-(5,6-dimethoxypyridazin-3-yl)phenyl]methyl}amino)-2-hydroxycyclopentyl](methyl)amino}pyrimidin-5-yl)oxy]-5-fluoro-N,N-di(propan-2-yl)benzamide hydrochloride]	–	5.6 nM	–
COc1cc(-c2ccc(CN[C@H]3C[C@@H](O)[C@@H](N(C)c4ncncc4Oc4ccc(F)cc4-c4ccnn4C(C)C)C3)cc2)nnc1OC [Example 102, (1R,2S,4R)-4-({[4-(5,6-dimethoxypyridazin-3-yl)phenyl]methyl}amino)-2-[(5-{4-fluoro-2-[1-(propan-2-yl)-1H-pyrazol-5-yl]phenoxy}pyrimidin-4-yl)(methyl)amino]cyclopentan-1-ol hydrochloride]	–	2.7 nM	–
CN(c1ncnc2sc(CC(F)(F)F)cc12)[C@H]1C[C@@H](NCc2ccc(-n3cnc4ccccc43)cc2)C[C@H]1O [Example 79, (1R,2S,4R)-4-({[4-(1H-benzimidazol-yl)phenyl]methyl}amino)-2-{methyl[6-(2,2,2-trifluoroethyl)thieno[2,3-d]pyrimidin-4-yl]amino}cyclopentan-1-ol hydrochloride]	–	–	IC50: 3.5 nM
CN(c1ncnc2cc(CC(F)(F)F)sc12)[C@@H]1CC[C@H](NCc2ccc3[nH]c(C#N)cc3c2)C1 [Example 4, 5-({[(1S,3R)-3-{methyl[6-(2,2,2-trifluoroethyl)thieno[3,2-d]pyrimidin-4-yl]amino}cyclopentyl]amino}methyl)-1H-indole-2-carbonitrile]	172 nM	–	–
COc1cncc(Nc2ccc(CN[C@H]3CC[C@@H](N(C)c4ncnc5sc(CC(F)(F)F)cc45)C3)cc2)c1 [Example 8, (1R,3S)—N^3-({4-[(5-methoxypyridin-3-yl)amino]phenyl}methyl)-N^1-methyl-N^1-[6-(2,2,2-trifluoroethyl)thieno[2,3-d]pyrimidin-4-yl]cyclopentane-1,3-diamine Hydrochloride]	8.8 nM	–	–
FC(F)(F)Cc1cc2c(N[C@@H]3CCC[C@H](NCc4ccc(-c5ncco5)cc4)C3)ncnc2s1 [Example 35, (1S,3R)-N^1-{[4-(1,3-oxazol-2-yl)phenyl]methyl}-N^3-[6-(2,2,2-trifluoroethyl)thieno[2,3-d]pyrimidin-4-yl]cyclohexane-1,3-diamine hydrochloride]	1220 nM	–	–
CN(c1ncnc2sc(CC(F)(F)F)cc12)[C@H]1C[C@@H](NCc2ccc(-c3cc(F)cc4c3cnn4S(C)(=O)=O)cc2)C[C@H]1O [Example 85, (1R,2S,4R)-4-[({4-[6-fluoro-1-(methanesulfonyl)-1H-indazol-4-yl]phenyl}methyl)amino]-2-{methyl[6-(2,2,2-trifluoroethyl)thieno[2,3-d]pyrimidin-4-yl]amino}cyclopentan-1-ol hydrochloride]	–	4 nM	–
CCN(c1ncnc2sc(CC(F)(F)F)cc12)[C@@H]1CC[C@H](NCc2ccc(-c3cccnc3)cc2)C1 [Example 43, (1R,3S)-N^1-ethyl-N^3-{[4-(pyridin-3-yl)phenyl]methyl}-N^1-[6-(2,2,2 trifluoroethyl)thieno[2,3-d]pyrimidin-4-yl]cyclopentane-1,3-diamine hydrochloride]	76.2 nM	–	–
COCCOc1nnc(-c2ccc(CN[C@H]3C[C@@H](O)[C@@H](N(C)c4nc(OC)nc5sc(CC(F)(F)F)cc45)C3)cc2)cc1OC [Example 109, (1R,2S,4R)-4-[({4-[5-methoxy-6-(2-methoxyethoxy)pyridazin-3-yl]phenyl}methyl)amino]-2-{[2-methoxy-6-(2,2,2-trifluoroethyl)thieno[2,3-d]pyrimidin-4-yl](methyl)amino}cyclopentan-1-ol hydrochloride]	–	–	IC50: 0.7 nM
COc1cncc(-c2ccc(CN[C@@H]3C[C@H](O)C[C@H](Nc4ncnc5sc(CC(F)(F)F)cc45)C3)cc2)c1 (single isomer, unassigned) [Example 15B, Hydrochloride]	403 nM	–	–
COc1cncc(-c2ccc(CN(C)[C@@H]3C[C@H](O)C[C@H](Nc4ncnc5sc(CC(F)(F)F)cc45)C3)cc2)c1 [Example 16, (1R,3S,5R)-3-[{[4-(5-methoxypyridin-3-yl)phenyl]methyl}(methyl)amino]-5-{[6-(2,2,2-trifluoroethyl)thieno[2,3-d]pyrimidin-4-yl]amino}cyclohexan-1-ol]	1870 nM	–	–
COc1nc(N(C)[C@H]2C[C@@H](NCC3CC=C(c4cc(OC)c(OC)nn4)CC3)C[C@H]2O)c2cc(CC(F)(F)F)sc2n1 (mixture of isomers) [Example 125, (1R,2S,4R)-4-({[4-(5,6-dimethoxypyridazin-3-yl)cyclohex-3-en-1-yl]methyl}amino)-2-{[2-methoxy-6-(2,2,2-trifluoroethyl)thieno[2,3-d]pyrimidin-4-yl](methyl)amino}cyclopentan-1-ol hydrochloride]	–	–	IC50: 1.5 nM
COc1nc(N(C)[C@H]2C[C@@H](NCc3ccc(-c4cc(OC)c(OC5CCN(S(C)(=O)=O)CC5)nn4)cc3)C[C@H]2O)c2cc(CC(F)(F)F)sc2n1 [Example 118, (1R,2S,4R)-4-({[4-(6-{[1-(methanesulfonyl)piperidin-4-yl]oxy}-5-methoxypyridazin-3-yl)phenyl]methyl}amino)-2-{[2-methoxy-6-(2,2,2-trifluoroethyl)thieno[2,3-d]pyrimidin-4-yl(methyl)amino}cyclopentan-1-ol hydrochloride]	–	1 nM	–
O=C1CCC(c2ccc(CN[C@H]3CCC[C@@H](Nc4ncnc5sc(CC(F)(F)F)cc45)C3)cc2)N1 (mixture of isomers) [Example 39, 5-[4-({[(1S,3R)-3-{[6-(2,2,2-trifluoroethyl)thieno[2,3-d]pyrimidin-4-yl[amino}cyclohexyl]amino}methyl)phenyl]pyrrolidin-2-one hydrochloride (diastereomer mixture)]	2070 nM	–	–
COc1cncc(-c2ccc(CN[C@@H]3C[C@H](N(C)c4ncnc5sc(CC(F)(F)F)cc45)C[C@@H]3O)cc2)c1 [Example 51, (1S,2R,4S)-2-({[4(5methoxypyridin-3-yl)phenyl]methyl}amino)-4-{methyl[6-(2,2,2-trilluoroethyl)thieno[2,3-d]pyrimidin-4-yl]amino}cyclopentan-1-ol hydrochloride]	10.1 nM	–	–
COc1cnc(-c2ccc(CN[C@H]3C[C@@H](O)[C@@H](N(C)c4ncnc5sc(CC(F)(F)F)cc45)C3)cc2)nc1OC [Example 97, (1R,2S,4R)-4-({[4-(4,5-dimethoxypyrimidin-2-yl)phenyl]methyl}amino)-2-{methyl[6-(2,2,2-trifluoroethyl)thieno[2,3-d]pyrimidin-4-yl]amino}cyclopentan-1-ol hydrochloride]	–	3.9 nM	–
CN(c1ncnc2sc(CC(F)(F)F)cc12)[C@@H]1CC[C@H](NCc2ccc(S(=O)(=O)c3ccccc3)cc2)C1 [Example 53, (1R,3S)N^3-{[4-(benzenesulfonyl)phenyl]methyl}N^1-methyl-N^1-[6-(2,2,2-trifluoroethyl)thieno[2,3-d]pyrimidin-4-yl]cyclopentane-1,3-diamine hydrochloride]	17.7 nM	–	–
COc1cc(-c2ccc(CN[C@H]3CC[C@H](OC)[C@@H](Nc4ncnc5sc(CC(F)(F)F)cc45)C3)cc2)nnc1OC [Example 126, (1S,3S,4S)—N^1-{[4-(5,6-dimethoxypyridazin-3-yl)phenyl]methyl}-4-methoxy-N^3-[6-(2,2,2-trifluoroethyl)thieno[2,3-d]pyrimidin-4-yl]cyclohexane-1,3-diamine Hydrochloride]	–	7.5 nM	–
